The results in this text go back to patent publication US20190350200A1, “SYNERGISTIC ANTIMICROBIAL COMPOSITIONS” (JUBILANT LIFE SCIENCES LIMITED, priority 2016, published 2019).

The term zone of inhibition denotes the extent of the growth-free halo in a diffusion test. A higher zone of inhibition goes with a stronger effect on the plate.

The structures appear in SMILES notation.

The subject of the assay is Malassezia furfur. As to the kind of experiment: Zone of inhibition, disc diffusion method. It is filed as cell-based. As to conditions: antimicrobial active alone, 37° C., 48 hrs; for zone of inhibition at […] strength / zone of inhibition at 0.5 % strength / zone of inhibition at 1 % strength / zone of inhibition at 2 % strength: Malassezia furfur; for zone of inhibition at […] strength: 0.25 % w/w. Here is the method: The antimicrobial efficacy was determined by measuring zone of inhibition using disc diffusion method against E. Coli, Malassezia furfur, Pseudomonas, Aspergillus niger, Staphylococcus and Candida. […] The culture plates were incubated at 37° C. for 48 hrs and anti-microbial activity was evaluated by observing an area of no growth around the disc. An area of no growth around the swatch is known as a zone of inhibition.

For `Cc1cc(C2CCCCC2)n(O)c(=O)c1` [Ciclopirox Olamine], the zone of inhibition at […] strength amounted to 18 mm. For the same compound, for the setting “0.5 % w/w”, the zone of inhibition at 0.5 % strength turned out to be 18 mm. Under “1 % w/w”, this compound returned a zone of inhibition at 1 % strength of 20 mm. The compound also came in with a zone of inhibition at 2 % strength (2 % w/w) of 22 mm.
For `CC(C)(C)C(=O)C(Oc1ccc(Cl)cc1)n1ccnc1` (stereo not drawn) [Climbazole], the zone of inhibition at […] strength stood at 20 mm. Further, the zone of inhibition at 0.5 % strength (0.5 % w/w) was found to be 40 mm. The zone of inhibition at 1 % strength (1 % w/w) was 40 mm. Moreover, the zone of inhibition at 2 % strength (2 % w/w) came out at 42 mm.
Take `CC(=O)N1CCN(c2ccc(OCC3COC(Cn4ccnc4)(c4ccc(Cl)cc4Cl)O3)cc2)CC1` (stereo not drawn) [Ketoconazole]: the zone of inhibition at […] strength was 40 mm. The zone of inhibition at 0.5 % strength (0.5 % w/w) was determined as 40 mm. The same compound registered a zone of inhibition at 1 % strength (1 % w/w) of 40 mm. The compound also displayed a zone of inhibition at 2 % strength (2 % w/w) of 40 mm.
For `Cc1cc(CC(C)CC(C)(C)C)n(O)c(=O)c1.NCCO` (stereo not drawn) [Octopirox], the Zone of inhibition is, setting by setting: (0.5 % w/w) 14 mm; (1 % w/w) 18 mm; (2 % w/w) 20 mm; ([…] w/w) 10 mm.
Compound `O=C(O)c1ccccc1O` [Salicylic Acid] had a zone of inhibition at 1 % strength (1 % w/w) of 4 mm. This compound also displayed a zone of inhibition at 2 % strength (2 % w/w) of 6 mm.
